Converted amounts (≈) assume the structure as drawn. Residues, ends and D or L forms follow the SMILES beside them.
Key:
[1] = in vitro; details: 25% (v/v) human serum, 24 h, 37 °C, 50 µM peptide, RP-HPLC peak area vs time zero
Method: The serum stability assay was carried out as previously described with some modifications. Briefly, tachyplesin variants were incubated in 25% (v/v) human serum diluted in phosphate-buffered saline (PBS) at a final concentration of 50 µM at 37 °C. Triplicates were collected at time 0 h and 24 h and the serum proteins were precipitated with acetonitrile (1:3 ratio) supplemented with 3% TFA. Samples were kept on ice for 10 min before centrifugation at 17,000× g for 10 min at 4 °C. The peptide containing supernatant of each sample was harvested and quantified using RP-HPLC (10 to 45% solvent B, 1%/min gradient). The percentage of peptide stability in human serum was calculated by comparing the area of the peptide peak obtained at 24 h to that at time 0 h. A linear peptide containing 18 amino acid residues ([…]) was included as a control susceptible to proteolytic degradation.

[2] = Activity against preformed biofilm (resazurin metabolic activity); assay type: cell-based, Staphylococcus aureus; details: 24 h preformed biofilm, 4 h peptide treatment; read-out: CC50 (reduction of 50% of the metabolically active cell population)
Method: S. aureus ATCC 6538 (1 × 10^6 cfu/mL) was cultured in Tryptic Soy Broth, containing 0.25% (w/v) glucose and incubated in 96-well microtiter flat-bottomed polystyrene plates for 24 h at 37 °C. Preformed biofilms were then washed with Mueller Hinton Broth to remove non-adherent cells. Two-fold serial dilutions of each peptide (highest concentration tested was 32 µM and lowest was 0.25 µM) were added to the biofilms for 4 h. Untreated 24 h preformed biofilms were used as a control. The metabolic activity of biofilm-embedded cells was determined using a resazurin reduction fluorometric assay as previously described.

[3] = tested on: human red blood cells (RBCs); assay: Hemolytic activity against human red blood cells; assay type: cell-based; details: human RBCs 0.25% (v/v), 1 h, 37 °C; mean ± SEM
Method: (§1) A small amount of blood was collected from three healthy human donors. The blood was immediately diluted in PBS and centrifuged 4–5 times for 1 min at 4000 rpm to wash and separate the human red blood cells (RBCs). RBCs suspension (0.25% (v/v) in PBS) was incubated with peptides with two-fold serial dilutions of the peptide (highest concentration tested was 128 µM, and the lowest was 0.25 µM) in a 96-well plate. Melittin, a membrane disruptive peptide, was used as control. The plates were incubated for 1 h at 37 °C. After incubation, the plates were centrifuged for 5 min at 1000 rpm to pellet any non-lysed RBCs. A total of 100 µL of the supernatant were transferred to a new 96-well plate. The hemoglobin released into the supernatant from lysed cells was measured by absorbance at 415 nm using the Tecan infinite M1000Pro multiplate reader (Männedorf, Switzerland).

[4] = tested on: S. aureus ATCC 6538; assay: MIC against planktonic bacteria (resazurin); assay type: cell-based, Staphylococcus aureus; details: Mueller Hinton Broth
Method: (§2) S. aureus ATCC 25923, S. aureus ATCC 6538, E. coli ATCC 25922, and E. coli DC2 CGSC 7139 were grown in Mueller Hinton Broth (Sigma Aldrich, St. Luis, USA). Bacterial cultures in the exponential growth phase were diluted to an OD600nm of 0.001 and seeded into 96-well plates. Peptides at different concentrations, starting at 64 µM and with two-fold serial dilutions (i.e., 64, 32, 16, 8, 4, 2, 1, 0.5, 0.25, 0.125 and 0.0625 µM), were incubated with cells; 0.05% (v/v) resazurin was added to the cultures the next day and the conversion to resorufin was measured after 1 h of incubation at 37 °C using a 565 nm excitation and 584 nm emission wavelength, as above.

[5] = tested on: S. aureus ATCC 25923; assay: MIC against planktonic bacteria (resazurin); assay type: cell-based, Staphylococcus aureus; details: Mueller Hinton Broth
Method: as §2

[6] = tested on: E. coli DC2 CGSC 7139; assay: MIC against planktonic bacteria (resazurin); assay type: cell-based, Escherichia coli; details: Mueller Hinton Broth
Method: as §2

[7] = tested on: E. coli ATCC 25922; assay: MIC against planktonic bacteria (resazurin); assay type: cell-based, Escherichia coli; details: Mueller Hinton Broth
Method: as §2

[8] = Cytotoxicity assay (resazurin); assay type: cell-based, Human; details: ± SEM, n ≥ 3
Method: Cells were grown in cell culture flasks and incubated in a humidified atmosphere (5% CO2, 37 °C). The cancer cell lines HeLa and the control cell line HaCaT were grown in a DMEM medium supplemented with 1% (v/v) penicillin/streptomycin and 10% (v/v) fetal bovine serum (FBS). The cancer cell lines MM96L, HT144 and WM164 were grown in a RPMI medium supplemented with 1% (v/v) penicillin/[…], 10% (v/v) FBS, 20 mM L-glutamine, and 10 mM sodium pyruvate. Cell cultures were maintained by dilution upon reaching confluence, each 48–72 h. More information about the cell lines is available in Tables S2 and S3.
Cells were seeded into 96-well flat-bottom plates at 5 × 10^3 cells/well and incubated overnight. The medium was removed and replaced with 90 µL serum-free medium, 10 µL of 10x concentrated peptide solutions in PBS were added. PBS was added as blank and 0.1% (v/v) Triton X-100 was used to establish 100% of cell death. After 2 h incubation at 37 °C, 10 µL of filtered 0.05% (w/v) resazurin solution was added to each well [70]. Resazurin is converted to the pink and fluorescent compound resorufin by viable cells. After incubation overnight, the fluorescence intensity (λex = 565 nm and λem = 584 nm) was measured with the Tecan infinite M1000Pro multiplate reader (Männedorf, Switzerland).

[9] = Hemolytic activity against human red blood cells; assay type: cell-based; details: at 64 µM peptide, human RBCs; read-out: RBCs lysed (hemolysis)
Method: as §1

[10] = HT144, 2 h peptide in serum-free medium
[11] = HaCaT non-cancerous control, 2 h peptide in serum-free medium
[12] = HeLa, 2 h peptide in serum-free medium
[13] = MM96L, 2 h peptide in serum-free medium
[14] = WM164, 2 h peptide in serum-free medium

Compound	peptide remaining in human serum [1]	Concentration reducing biofilm metabolic activity by 50% [2]	HC50 (concentration required to induce 50% lysis in RBCs) [3]	MIC [4]	MIC [5]	MIC [6]	MIC [7]	CC50 [8, 10]	CC50 [8, 11]	CC50 [8, 12]	CC50 [8, 13]	CC50 [8, 14]	hemolysis [9]
CC[C@H](C)[C@H](NC(=O)[C@H](CC(C)C)NC(=O)[C@H](CCC(N)=O)NC(=O)CNC(=O)[C@H](CO)NC(=O)CNC(=O)CNC(=O)CNC(=O)CNC(=O)[C@@H](N)CCCCN)C(=O)N[C@@H](CC(=O)O)C(=O)N[C@@H](CO)C(=O)N[C@@H](CCSC)C(=O)N[C@@H](C)C(=O)N[C@@H](CC(N)=O)C(=O)N[C@@H](CO)C(=O)N[C@@H](Cc1ccccc1)C(=O)N[C@H](C(=O)O)C(C)C [KGGGGSGQLIDSMANSFV, reference compound] (H-KGGGGSGQLIDSMANSFV-OH)	fully degraded	–	–	–	–	–	–	–	–	–	–	–	–
CC[C@H](C)[C@@H]1NC(=O)CNC(=O)[C@H](CCCNC(=N)N)NC(=O)[C@H](Cc2ccc(O)cc2)NC(=O)[C@@H]2CSSC[C@H](NC1=O)C(=O)N[C@@H](Cc1ccc(O)cc1)C(=O)N[C@@H](CCCNC(=N)N)C(=O)N[C@@H](CCCNC(=N)N)C(=O)N[C@H]1CSSC[C@H](NC(=O)[C@H](Cc3c[nH]c4ccccc34)NC(=O)[C@H](CCCCN)NC(=O)CNC(=O)[C@H](CCCNC(=N)N)NC1=O)C(=O)N[C@@H](Cc1ccccc1)C(=O)N[C@@H](CCCNC(=N)N)C(=O)N[C@@H](C(C)C)C(=O)N2 [cTI, Cyclic Tachyplesin I] (HELM PEPTIDE1{C.F.R.V.C.Y.R.G.I.C.Y.R.R.C.R.G.K.W}$PEPTIDE1,PEPTIDE1,1:R3-14:R3|PEPTIDE1,PEPTIDE1,5:R3-10:R3|PEPTIDE1,PEPTIDE1,1:R1-18:R2$$$V2.0)	did not degrade	17.8 ± 3.6 µM	106.9 ± 21.0 µM	8 µM (≈ 18.4 µg/mL)	2 to 8 µM	4 µM (≈ 9.22 µg/mL)	1 µM (≈ 2.3 µg/mL)	1400 ± 100 nM	7900 ± 500 nM	6700 ± 600 nM	1300 ± 100 nM	2700 ± 100 nM	–
CC[C@H](C)[C@@H]1NC(=O)CNC(=O)[C@H](CCCNC(=N)N)NC(=O)[C@H](Cc2ccc(O)cc2)NC(=O)[C@@H]2CSSC[C@H](NC1=O)C(=O)N[C@@H](Cc1ccc(O)cc1)C(=O)N[C@@H](CCCNC(=N)N)C(=O)N[C@@H](CCCCN)C(=O)N[C@H]1CSSC[C@H](NC(=O)[C@H](Cc3c[nH]c4ccccc34)NC(=O)[C@H](CCCCN)NC(=O)CNC(=O)[C@H](CCCNC(=N)N)NC1=O)C(=O)N[C@@H](Cc1ccccc1)C(=O)N[C@@H](CCCNC(=N)N)C(=O)N[C@@H](C(C)C)C(=O)N2 [cTIII, Cyclic Tachyplesin III] (HELM PEPTIDE1{C.F.R.V.C.Y.R.G.I.C.Y.R.K.C.R.G.K.W}$PEPTIDE1,PEPTIDE1,1:R3-14:R3|PEPTIDE1,PEPTIDE1,5:R3-10:R3|PEPTIDE1,PEPTIDE1,1:R1-18:R2$$$V2.0)	–	18 ± 1.4 µM	>128 µM	8 µM (≈ 18.2 µg/mL)	2 to 8 µM	4 to 8 µM	1 to 2 µM	900 ± 30 nM	7500 ± 300 nM	9300 ± 400 nM	1700 ± 100 nM	1300 ± 100 nM	–
CC[C@H](C)[C@@H]1NC(=O)CNC(=O)[C@H](CCCNC(=N)N)NC(=O)[C@H](Cc2ccc(O)cc2)NC(=O)[C@@H]2CSSC[C@H](NC1=O)C(=O)N[C@@H](Cc1ccc(O)cc1)C(=O)N[C@@H](CCCNC(=N)N)C(=O)N[C@@H](CCCCN)C(=O)N[C@H](C(=O)N[C@@H](CCCNC(=N)N)C(N)=O)CSSC[C@H](NC(=O)[C@H](Cc1c[nH]c3ccccc13)NC(=O)[C@@H](N)CCCNC(=N)N)C(=O)N[C@@H](Cc1ccccc1)C(=O)N[C@@H](CCCNC(=N)N)C(=O)N[C@@H](C(C)C)C(=O)N2 [TII, Tachyplesin II] (HELM PEPTIDE1{R.W.C.F.R.V.C.Y.R.G.I.C.Y.R.K.C.R.[am]}$PEPTIDE1,PEPTIDE1,3:R3-16:R3|PEPTIDE1,PEPTIDE1,7:R3-12:R3$$$V2.0)	–	23.1 ± 2.9 µM	55.4 ± 6.6 µM	4 to 8 µM	1 to 4 µM	0.5 to 1 µM	0.125 to 0.5 µM	2000 ± 100 nM	3700 ± 200 nM	18000 ± 3900 nM	1600 ± 100 nM	1600 ± 100 nM	56%
CC[C@H](C)[C@@H]1NC(=O)CNC(=O)[C@H](CCCNC(=N)N)NC(=O)[C@H](Cc2ccc(O)cc2)NC(=O)[C@@H]2CSSC[C@H](NC1=O)C(=O)N[C@@H](Cc1ccc(O)cc1)C(=O)N[C@@H](CCCNC(=N)N)C(=O)N[C@@H](CCCCN)C(=O)N[C@H]1CSSC[C@H](NC(=O)[C@H](Cc3c[nH]c4ccccc34)NC(=O)[C@H](CCCNC(=N)N)NC(=O)CNC(=O)[C@H](CCCNC(=N)N)NC1=O)C(=O)N[C@@H](Cc1ccccc1)C(=O)N[C@@H](CCCNC(=N)N)C(=O)N[C@@H](C(C)C)C(=O)N2 [cTII, Cyclic Tachyplesin II] (HELM PEPTIDE1{C.F.R.V.C.Y.R.G.I.C.Y.R.K.C.R.G.R.W}$PEPTIDE1,PEPTIDE1,1:R3-14:R3|PEPTIDE1,PEPTIDE1,5:R3-10:R3|PEPTIDE1,PEPTIDE1,1:R1-18:R2$$$V2.0)	–	19.4 ± 1.5 µM	64.1 ± 9.4 µM	8 µM (≈ 18.4 µg/mL)	2 to 8 µM	4 to 8 µM	1 to 2 µM	800 ± 40 nM	2400 ± 300 nM	7200 ± 400 nM	1100 ± 100 nM	2400 ± 300 nM	–

Reference: PMC6747087, “Characterization of Tachyplesin Peptides and Their Cyclized Analogues to Improve Antimicrobial and Anticancer Properties” (International Journal of Molecular Sciences, 2019)
